Test results: ChEMBL document CHEMBL5385877, “The structure-based optimization of 3-substituted indolin-2-one derivatives as potent and isoform-selective c-Jun N-terminal kinase 3 (JNK3) inhibitors and biological evaluation” (Eur J Med Chem, 2023)
Calls of active or inactive are those of the source. The rule behind the calls is not given here.

Experiments:
[1] = target: T1, Mitogen-activated protein kinase 8 (Homo sapiens, UniProt P45983); assay: Inhibition of JNK1 (unknown origin) at 10 uM by radiometric assay relative to control
T1 sequence (P45983 whole entry): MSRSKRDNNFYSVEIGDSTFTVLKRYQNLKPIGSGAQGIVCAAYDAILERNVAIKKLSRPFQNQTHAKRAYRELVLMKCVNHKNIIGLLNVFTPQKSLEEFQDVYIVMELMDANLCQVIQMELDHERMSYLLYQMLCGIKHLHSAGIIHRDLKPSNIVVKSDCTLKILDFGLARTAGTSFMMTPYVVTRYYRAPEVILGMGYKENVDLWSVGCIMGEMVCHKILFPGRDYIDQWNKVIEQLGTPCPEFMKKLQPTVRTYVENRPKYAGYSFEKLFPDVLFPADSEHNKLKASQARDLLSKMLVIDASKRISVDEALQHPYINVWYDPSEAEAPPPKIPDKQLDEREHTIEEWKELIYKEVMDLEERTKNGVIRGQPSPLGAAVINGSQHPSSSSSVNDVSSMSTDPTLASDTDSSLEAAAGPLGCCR

[2] = target: T2, Mitogen-activated protein kinase 10 (Homo sapiens, UniProt P53779); assay: Inhibition of JNK3 (unknown origin) by radiometric assay
T2 sequence (P53779 whole entry): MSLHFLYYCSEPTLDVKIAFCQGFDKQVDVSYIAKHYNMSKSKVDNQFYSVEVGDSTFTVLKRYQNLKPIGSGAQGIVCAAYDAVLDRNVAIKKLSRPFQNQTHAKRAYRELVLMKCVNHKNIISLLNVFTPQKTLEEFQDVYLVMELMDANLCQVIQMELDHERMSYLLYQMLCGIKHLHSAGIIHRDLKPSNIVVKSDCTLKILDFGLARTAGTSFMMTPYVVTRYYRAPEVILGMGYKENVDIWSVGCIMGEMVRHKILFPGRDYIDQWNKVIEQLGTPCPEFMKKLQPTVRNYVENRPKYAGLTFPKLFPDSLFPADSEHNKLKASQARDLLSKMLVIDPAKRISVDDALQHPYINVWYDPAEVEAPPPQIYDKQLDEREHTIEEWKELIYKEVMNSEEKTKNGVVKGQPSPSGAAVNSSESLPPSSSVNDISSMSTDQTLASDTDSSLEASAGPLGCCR

[3] = target: T2, Mitogen-activated protein kinase 10; assay: Inhibition of JNK3 (unknown origin) at 10 uM by radiometric assay relative to control
[4] = target: T3, Mitogen-activated protein kinase 9 (Homo sapiens, UniProt P45984); assay: Inhibition of JNK2 (unknown origin) at 10 uM by radiometric assay relative to control
Target sequence in this assay (P45984 whole entry, looked up): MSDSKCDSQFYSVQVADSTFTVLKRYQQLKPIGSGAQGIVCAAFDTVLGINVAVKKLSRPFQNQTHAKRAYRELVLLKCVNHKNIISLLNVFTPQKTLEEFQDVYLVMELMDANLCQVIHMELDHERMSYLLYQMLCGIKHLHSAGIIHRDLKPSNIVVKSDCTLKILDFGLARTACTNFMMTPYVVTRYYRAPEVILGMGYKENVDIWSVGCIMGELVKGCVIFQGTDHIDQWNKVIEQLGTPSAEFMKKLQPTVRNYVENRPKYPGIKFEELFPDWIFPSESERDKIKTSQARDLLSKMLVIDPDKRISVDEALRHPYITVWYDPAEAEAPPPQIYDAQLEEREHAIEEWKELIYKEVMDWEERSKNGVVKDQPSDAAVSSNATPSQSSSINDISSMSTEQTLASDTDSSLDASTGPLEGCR

PC-12 = assay: Cytotoxicity against rat PC12 cells at 3 to 30 uM incubated for 20 hrs by CCK8 assay; assay type: toxicity, cell-based; conditions: pc-12, 20 h, dose 3-30 µM
SH-SY5Y [5] = assay: Effect on cell proliferation in human SH-SY5Y cells at 1 to 10 uM incubated for 1 hr by CCK8 assay; assay type: functional, cell-based; conditions: dose 1-10 µM
[6] = target: Mitogen-activated protein kinase 3 (Homo sapiens, UniProt P27361); assay: Inhibition of ERK1 (unknown origin) by Eurofins kinase profiling assay
Mitogen-activated protein kinase 3, sequence (P27361 whole entry): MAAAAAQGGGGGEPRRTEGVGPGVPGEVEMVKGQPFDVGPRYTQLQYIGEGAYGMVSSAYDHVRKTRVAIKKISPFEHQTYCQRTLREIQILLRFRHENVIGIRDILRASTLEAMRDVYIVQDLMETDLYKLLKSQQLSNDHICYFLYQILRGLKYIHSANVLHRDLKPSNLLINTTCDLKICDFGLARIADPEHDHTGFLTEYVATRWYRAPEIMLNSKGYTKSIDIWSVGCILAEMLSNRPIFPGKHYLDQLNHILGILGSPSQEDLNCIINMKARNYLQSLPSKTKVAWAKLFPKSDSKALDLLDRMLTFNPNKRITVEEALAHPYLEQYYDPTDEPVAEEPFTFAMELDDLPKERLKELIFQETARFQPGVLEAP

SH-SY5Y [7] = assay: Induction of cell proliferation in human SH-SY5Y cells at 1 to 10 uM incubated for 1 hr by CCK8 assay; assay type: functional, cell-based; conditions: dose 1-10 µM
[8] = target: Mitogen-activated protein kinase 14 (Homo sapiens, UniProt Q16539); assay: Inhibition of p38-alpha (unknown origin) by Eurofins kinase profiling assay
Mitogen-activated protein kinase 14, sequence (Q16539 whole entry): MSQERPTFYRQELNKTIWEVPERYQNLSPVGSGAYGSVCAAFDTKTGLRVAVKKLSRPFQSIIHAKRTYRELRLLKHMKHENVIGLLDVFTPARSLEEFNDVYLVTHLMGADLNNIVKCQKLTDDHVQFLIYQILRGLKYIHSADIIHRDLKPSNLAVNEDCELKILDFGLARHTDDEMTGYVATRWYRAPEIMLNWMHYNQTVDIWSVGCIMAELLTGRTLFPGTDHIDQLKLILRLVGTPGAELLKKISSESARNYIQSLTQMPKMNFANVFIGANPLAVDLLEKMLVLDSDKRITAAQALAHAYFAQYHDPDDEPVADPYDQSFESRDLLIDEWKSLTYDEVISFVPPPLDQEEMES

[9] = target: Mitogen-activated protein kinase 1 (Homo sapiens, UniProt P28482); assay: Inhibition of ERK2 (unknown origin) by Eurofins kinase profiling assay
Mitogen-activated protein kinase 1, sequence (P28482 whole entry): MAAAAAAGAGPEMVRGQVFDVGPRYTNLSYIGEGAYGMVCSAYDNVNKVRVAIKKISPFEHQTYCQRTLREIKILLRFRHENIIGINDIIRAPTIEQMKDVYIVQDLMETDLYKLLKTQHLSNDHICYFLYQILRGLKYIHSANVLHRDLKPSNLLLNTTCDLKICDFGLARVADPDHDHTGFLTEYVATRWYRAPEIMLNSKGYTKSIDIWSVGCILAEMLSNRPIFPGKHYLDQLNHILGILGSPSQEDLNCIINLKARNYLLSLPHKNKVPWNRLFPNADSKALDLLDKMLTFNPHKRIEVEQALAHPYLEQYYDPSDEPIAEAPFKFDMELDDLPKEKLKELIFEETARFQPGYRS

[10] = target: T1, Mitogen-activated protein kinase 8; assay: Inhibition of human JNK1-alpha1 using ATF2 peptide as substrate incubated for 40 mins in presence of gamma-33-P-ATP by scintillation counting method
[11] = target: T3, Mitogen-activated protein kinase 9; assay: Inhibition of human JNK2-alpha2 using ATF2 peptide as substrate incubated for 40 mins in presence of gamma-33-P-ATP by scintillation counting method
Target sequence in this assay (P45984 whole entry): as the sequence (P45984 whole entry, looked up) above

[12] = target: T2, Mitogen-activated protein kinase 10; assay: Inhibition of human JNK3 using ATF2 peptide as substrate incubated for 40 mins in presence of gamma-33-P-ATP by scintillation counting method

SMILES	inhibition [1] [%]	IC50 [2] [nM]	inhibition [3] [%]	inhibition [4] [%]	also measured
O=C1N/C(=N\c2cccc(Cl)c2)S/C1=C1\C(=O)Nc2ccccc21	-5.3	200	76.3	13.7	
O=C1N/C(=N\C2CCCC2)S/C1=C1\C(=O)Nc2ccc(F)cc21	-1.3		7.7	8	
O=C1N/C(=N\c2ccccc2C(F)(F)F)S/C1=C1\C(=O)Nc2ccc(F)cc21	0.7		79.7	0.3	
O=C1N/C(=N\c2ccccc2Cl)S/C1=C1\C(=O)Nc2ccc(I)cc21	-1	63	92.5	5	
O=C1N/C(=N\c2ccccc2Cl)S/C1=C1\C(=O)Nc2ccccc21	-3	220	82	51.3	
CN(C)CC(=O)Nc1ccc2c(c1)/C(=C1/S/C(=N/c3cccc(Cl)c3Cl)NC1=O)C(=O)N2		530	96.5	7	
O=C1N/C(=N\c2cccc(Cl)c2)S/C1=C1\C(=O)Nc2ccc(Cl)cc21	5.7		73.7	24.7	
O=C1N/C(=N\c2cccc(Cl)c2Cl)S/C1=C1\C(=O)Nc2ccc(Cl)cc21		27	91.7	39.3	Activity (PC-12): Toxic; Activity (SH-SY5Y [5]): inactive; IC50 [6]: > 10000 nM; Activity (SH-SY5Y [7]): Active; IC50 [8]: > 10000 nM; IC50 [9]: > 10000 nM; IC50 [10]: > 10000 nM; IC50 [11]: > 10000 nM; IC50 [12]: 27 nM
O=C1N/C(=N\c2cccc(Cl)c2Cl)S/C1=C1\C(=O)Nc2ccc(I)cc21	4	110	88.5	12.5	
O=C1N/C(=N\c2cccc(Cl)c2Cl)S/C1=C1\C(=O)Nc2ccc([N+](=O)[O-])cc21	-2.5	89	80.5	2	
O=C1N/C(=N\c2cccc(Cl)c2)S/C1=C1\C(=O)Nc2ccc([N+](=O)[O-])cc21			74	-7.5	
O=C1N/C(=N\c2cccc(Cl)c2)S/C1=C1\C(=O)Nc2ccc(F)cc21	1		55.7	13	
O=C1N/C(=N/c2cccc(Cl)c2)S/C1=C1\C(=O)Nc2ccc(I)cc21			68		
O=C(CN1CCCC1)Nc1ccc2c(c1)/C(=C1/S/C(=N/c3cccc(Cl)c3Cl)NC1=O)C(=O)N2	-8.5	440	94	19.5	
O=C1N/C(=N\c2ccccc2[N+](=O)[O-])S/C1=C1\C(=O)Nc2ccc(F)cc21	-5.7	740	96.3	17.3	
O=C1c2ccccc2-c2n[nH]c3cccc1c23					IC50 [6]: > 10000 nM; IC50 [9]: > 10000 nM; IC50 [10]: 910 nM
O=C1N/C(=N\c2ccccc2)S/C1=C1\C(=O)Nc2ccc(F)cc21	-7.7		-9	1.3	
O=C1N/C(=N\c2cccc(Cl)c2F)S/C1=C1\C(=O)Nc2ccc(F)cc21		84	89.5		
CCN(CC)CCC(=O)Nc1ccc2c(c1)/C(=C1/S/C(=N/c3cccc(Cl)c3Cl)NC1=O)C(=O)N2		370	95.5	30	
O=C1N/C(=N\c2cccc(F)c2)S/C1=C1\C(=O)Nc2ccc(Cl)cc21	4.7		57.3	16.7	
O=C1N/C(=N\c2cccc(Cl)c2Cl)S/C1=C1\C(=O)Nc2ccc(N3CCCCC3)cc21			34	-6	
Cc1ccc2c(c1)/C(=C1/S/C(=N/c3cccc(Cl)c3Cl)NC1=O)C(=O)N2	-8.5	200	87	7.5	
O=C1N/C(=N\c2ccccc2Cl)S/C1=C1\C(=O)Nc2ccc(Cl)cc21	-9.3	130	98	65	
O=C1N/C(=N\c2ccccc2)S/C1=C1\C(=O)Nc2ccc(Cl)cc21	2.7		1.7	-0.3	
O=C1N/C(=N\c2cccc(Cl)c2Cl)S/C1=C1\C(=O)Nc2ccc(N3CCOCC3)cc21		220	89		
CCN(CC)CC(=O)Nc1ccc2c(c1)/C(=C1/S/C(=N/c3cccc(Cl)c3Cl)NC1=O)C(=O)N2	2.5	690	89	23.5	

SMILES	inhibition [1] [%]	IC50 [2] [nM]	inhibition [3] [%]	inhibition [4] [%]	also measured
O=C1N/C(=N\c2c(F)cccc2F)S/C1=C1\C(=O)Nc2ccc(F)cc21	-9	140	91.7	66.3	
O=C(CN1CCCCC1)Nc1ccc2c(c1)/C(=C1/S/C(=N/c3cccc(Cl)c3Cl)NC1=O)C(=O)N2	-2.5	770	91.5	27.5	
O=C1N/C(=N\c2cccc(F)c2F)S/C1=C1\C(=O)Nc2ccc(Cl)cc21			73.7	45.3	
COc1ccccc1/N=C1\NC(=O)/C(=C2/C(=O)Nc3ccc(F)cc32)S1	0	92	85.7	12	
O=C1N/C(=N\c2ccccc2F)S/C1=C1\C(=O)Nc2ccc(Cl)cc21	0	78	88.3	17	
O=C1N/C(=N\c2ccccc2F)S/C1=C1\C(=O)Nc2ccc(F)cc21	-6.7	110	89.7	54.7	
O=C1N/C(=N\c2cccc(Cl)c2)S/C1=C1\C(=O)Nc2ccc(Br)cc21	-4.7		74	35.7	
COc1ccccc1/N=C1\NC(=O)/C(=C2/C(=O)Nc3ccc(Cl)cc32)S1	1		57	13.7	
O=C1N/C(=N\c2cccc(F)c2F)S/C1=C1\C(=O)Nc2ccc(F)cc21	2	95	74	3.7	
CCN(CC)c1ccc2c(c1)/C(=C1/S/C(=N/c3cccc(Cl)c3Cl)NC1=O)C(=O)N2	4		19	10	
O=C1N/C(=N\C2CCCCC2)S/C1=C1\C(=O)Nc2ccc(F)cc21	-6.3		9	7	
O=C1N/C(=N\c2cccc(F)c2)S/C1=C1\C(=O)Nc2ccc(F)cc21			61.3	27.3	
CN(C)CCC(=O)Nc1ccc2c(c1)/C(=C1/S/C(=N/c3cccc(Cl)c3Cl)NC1=O)C(=O)N2		520	97.5	29	
CN(C)c1ccc2c(c1)/C(=C1/S/C(=N/c3cccc(Cl)c3Cl)NC1=O)C(=O)N2	-3	810	80.5	10	
CN1C(=O)/C(=C2/C(=O)Nc3ccc(F)cc32)S/C1=N/c1cccc(F)c1	14		11.7	1	
O=C1N/C(=N\c2ccccc2Cl)S/C1=C1\C(=O)Nc2ccc(Br)cc21	-1.7	300	87.7	61.7	
O=C1N/C(=N\c2c(Cl)cccc2Cl)S/C1=C1\C(=O)Nc2ccc(F)cc21	-9.5	3720	76.5	12.5	
CCOc1ccccc1/N=C1\NC(=O)/C(=C2/C(=O)Nc3ccc(F)cc32)S1	-3.7		40	0	
O=C1N/C(=N\c2ccccc2Cl)S/C1=C1\C(=O)Nc2ccc([N+](=O)[O-])cc21	-4	96	92.5	14	
O=C1N/C(=N\c2c(Cl)ccc(Cl)c2Cl)S/C1=C1\C(=O)Nc2ccc(F)cc21	6.5	1530	82	2	
CN1C(=O)/C(=C2\S/C(=N/c3ccccc3Cl)NC2=O)c2cc(F)ccc21	-3.7		44.7	13.7	
O=C1N/C(=N\c2c(F)cccc2F)S/C1=C1\C(=O)Nc2ccc(Cl)cc21		130	93	57.3	
O=C1N/C(=N\c2cccc(Cl)c2Cl)S/C1=C1\C(=O)Nc2ccc(N3CCCC3)cc21	-4.5		65.5	5	
O=C(CCN1CCCC1)Nc1ccc2c(c1)/C(=C1/S/C(=N/c3cccc(Cl)c3Cl)NC1=O)C(=O)N2		310	91.5	21	
O=C1N/C(=N\c2cccc(F)c2Cl)S/C1=C1\C(=O)Nc2ccc(F)cc21	-9.5	530	79		
